Test results taken from patent US11066406B2, “Small molecule inhibitors of the JAK family of kinases” (Janssen Pharmaceutica NV, priority 2018, dated 2021).

Experiments:
[1] = Physical stability of solid forms (accelerated aging conditions / ambient); format: physicochemical; conditions: 2 days at 40° C./70% RH, HT-XRPD
Experimental: Long term slurry experiments were performed by suspending compound embodiment 1s in twenty neat solvents and stirring at room temperature for two weeks and at 50° C. for one week. Upon completion of the equilibration time, the residual solids were separated from the mother liquors. The solids were dried under ambient conditions and dried under vacuum (5 mBar) before being analyzed by HT-XRPD. Subsequently, the solids were exposed to accelerated aging conditions (40° C./70% relative humidity) for two days and again analyzed by HT-XRPD.
The mother liquors of the solvent equilibration experiments performed at 50° C. were filtered at 50° C. to remove any particulate matter. The suspensions at 50° C. were filtered using 0.2 μm PTFE filters, and the solutions were placed at 5° C. and aged for 72 hours. When solids had precipitated during aging these solids were separated from the liquid, dried under ambient conditions and under vacuum, and analyzed by HT-XRPD. The remaining mother liquors were allowed to slowly evaporate and the remaining solids were analyzed by HT-XRPD. The samples in which no precipitation occurred were placed under vacuum and the dried solids were analyzed by HT-XRPD. All the solids were then exposed to AAC (2 days at 40° C./70% RH) and re-analyzed by HT-XRPD.
The cooling/evaporative crystallization experiments at μL scale were performed in a 96-well plate, using 12 neat solvents and 12 solvent mixtures and applying four temperature profiles. In each well approximately 4 mg of embodiment 1s was solid dosed. Subsequently, the crystallization solvents (80 μL) and solvent mixtures were added to reach a concentration of 50 mg/mL, and the plate, with each well individually sealed, to subsequently undergo one of the four temperature profiles. Upon completion of the temperature profile the solvents were allowed to evaporate at low ambient pressure (24 hours) and the remaining solids were analyzed by HT-XRPD before and after exposure to AAC for 2 days (40° C./70% RH).
The cooling crystallization experiments with hot filtration were performed from supersaturated solutions of compound Ex. 1 prepared at 50° C. in different solvent mixtures. The hot filtrated solutions underwent a 48-hour cooling profile. The vials in which solids had precipitated after the temperature profile were centrifuged and the solids were separated from the liquid and analyzed by HT-XRPD (after drying under vacuum). If no solids had precipitated the solutions were evaporated under vacuum and the solids analyzed by HT-XRPD. All the solids were exposed to AAC (2 days at 40° C./70% RH) and re-analyzed by HT-XRPD. […] In three experiments, an amorphous residue was recovered which after AAC crystallized to a mixture of members of embodiment 1 (1s or 1a) and 3 (3e) or became deliquescent. […]

[2] = Hygroscopicity (GVS) and static storage of embodiment 11; format: physicochemical
Experimental: In a hygroscopicity study of embodiment 11, it was found it to be only slightly hygroscopic, with a mass change of 0.66% between 0-90% RH in the GVS analysis as shown in FIG. 18. […] Variable temperature (VT)-XRPD was performed in order to assess the stability of embodiment 11 upon heating. […] The diffractograms of embodiment 11 before and after the VT-XRPD experiment, along with the diffractogram for embodiment 6 are shown in FIG. 24. Embodiment 11 was also subjected to static storage analysis at 40° C./75% RH for up to 48 days. The samples were analyzed by XRPD and Karl Fisher (KF) after 2 days, 5 days and 48 days.

SMILES | physical stability after accelerated aging conditions (AAC) [1] | physical stability by XRPD on static storage ([2]; 40° C./75% RH for up to 48 days) | mass change in GVS analysis ([2]; between 0-90% RH) [%] | total water uptake (Karl Fisher) ([2]; static storage 40° C./75% RH, after 48 days) [%]
CC(C)(O)CNC(=O)Cc1nc2cnc3[nH]ccc3c2n1[C@H]1CC[C@H](CC#N)CC1 [embodiment 2, 2-(1-((1r,4r)-4-(Cyanomethyl)cyclohexyl)-1,6-dihydroimidazo[4,5-d]pyrrolo[2,3-b]pyridin-2-yl)-N-(2-hydroxy-2-methylpropyl)acetamide] | converted to embodiment 3e |  |  | 
CC(C)(O)CNC(=O)Cc1nc2cnc3[nH]ccc3c2n1[C@H]1CC[C@H](CC#N)CC1 [embodiment 5, 2-(1-((1r,4r)-4-(Cyanomethyl)cyclohexyl)-1,6-dihydroimidazo[4,5-d]pyrrolo[2,3-b]pyridin-2-yl)-N-(2-hydroxy-2-methylpropyl)acetamide] | physically unstable |  |  | 
CC(C)(O)CNC(=O)Cc1nc2cnc3[nH]ccc3c2n1[C@H]1CC[C@H](CC#N)CC1 [embodiment 6, 2-(1-((1r,4r)-4-(Cyanomethyl)cyclohexyl)-1,6-dihydroimidazo[4,5-d]pyrrolo[2,3-b]pyridin-2-yl)-N-(2-hydroxy-2-methylpropyl)acetamide] | stable solid form |  |  | 
CC(C)(O)CNC(=O)Cc1nc2cnc3[nH]ccc3c2n1[C@H]1CC[C@H](CC#N)CC1 [embodiment 7, 2-(1-((1r,4r)-4-(Cyanomethyl)cyclohexyl)-1,6-dihydroimidazo[4,5-d]pyrrolo[2,3-b]pyridin-2-yl)-N-(2-hydroxy-2-methylpropyl)acetamide] | physically stable |  |  | 
CC(C)(O)CNC(=O)Cc1nc2cnc3[nH]ccc3c2n1[C@H]1CC[C@H](CC#N)CC1 [embodiment 11, 2-(1-((1r,4r)-4-(Cyanomethyl)cyclohexyl)-1,6-dihydroimidazo[4,5-d]pyrrolo[2,3-b]pyridin-2-yl)-N-(2-hydroxy-2-methylpropyl)acetamide] |  | remained unchanged | 0.66 | 1.2
